In patent publication US20250270199A1, “THIAZOLE DERIVATIVES AND METHODS OF USING THE SAME” (Arkansas State University - Jonesboro, priority 2022, published 2025):
Values after ≈ are worked out from the molar mass of the structure shown. Values joined by “and” are separate entries in the source; they are usually repeats but may differ in a detail not shown here. Equal values may be shown once.

Columns and labels:
[1] = system: S. epidermidis ATCC 700296 (Se); test: MIC, broth microdilution, Se; type: cell-based; conditions: Staphylococcus epidermidis, ATCC700296; Table 1, HT series; read-out: Minimum inhibitory concentration (MIC) Se
Summary of the method: (§1)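 CLSI broth microdilution, top conc 64 μg/mL, serial dilution; duplicates, n = 3 independent runs on separate days.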

[2] = system: Sa UAMS-1 MRSA ATCC 49230 (Sa UAMS); test: MIC, broth microdilution, Sa UAMS; type: cell-based, S. aureus; conditions: Staphylococcus aureus; Table 1, HT series; read-out: Minimum inhibitory concentration (MIC) Sa UAMS
Summary of the method: as §1

[3] = system: E. faecalis ATCC 29212 (Efs 12); test: MIC, broth microdilution, Efs 12; type: cell-based; conditions: Table 1, HT series; replicates from different days separated by comma
Summary of the method: as §1

[4] = system: S. aureus subsp. aureus Rosenbach ATCC 25904 (SA Newman); test: MIC, broth microdilution, SA Newman; type: cell-based; conditions: Staphylococcus aureus; Table 1, HT series; read-out: Minimum inhibitory concentration (MIC) Sa Newman
Summary of the method: as §1

[5] = system: B. subtilis ATCC 6633 (Bs); test: MIC, broth microdilution, Bs; type: cell-based; conditions: Bacillus subtilis, ATCC6633; Table 1, HT series; read-out: Minimum inhibitory concentration (MIC) Bs
Protocol: (§2) The broth microdilution method was utilized to determine MIC values of novel thiazole derivatives against different clinically important Gram-positive bacteria according to the guidelines outlined by the Clinical and Laboratory Standards Institute (CLSI) as reported in our recent papers.^1-5 The starting concentration of compounds for MIC determination was 64 μg/mL serially diluted down the wells and the MIC values were recorded in duplicates in three independent experiments on different days.

[6] = system: S. aureus LAC MRSA (Sa LAC); test: MIC, broth microdilution, Sa LAC; type: cell-based; conditions: Staphylococcus aureus, Table 1, HT series, read-out: Minimum inhibitory concentration (MIC) Sa LAC
Protocol: as §2

[7] = system: S. aureus ATCC 25923 (Sa 23); test: MIC, broth microdilution, Sa 23; type: cell-based; conditions: replicates from different days separated by comma; for MIC: Staphylococcus aureus, ATCC25923, Table 1, HT series, read-out: Minimum inhibitory concentration (MIC) Sa 23; for Minimum inhibitory concentration (MIC) Sa 23: Table 1, HT series
Summary of the method: as §1

[8] = system: E. faecalis ATCC 51299 (Efs 99); test: MIC, broth microdilution, Efs 99; type: cell-based; conditions: Enterococcus faecalis, ATCC51299; Table 1, HT series; read-out: Minimum inhibitory concentration (MIC) Efs 99
Summary of the method: as §1

[9] = system: S. aureus subsp. aureus Rosenbach BAA-1717 (Sa USA 300); test: MIC, broth microdilution, Sa USA 300; type: cell-based; conditions: Staphylococcus aureus; Table 1, HT series; read-out: Minimum inhibitory concentration (MIC) SA USA 300
Summary of the method: as §1

[10] = system: E. faecium ATCC 700221 (Efm 21); test: MIC, broth microdilution, Efm 21; type: cell-based; conditions: Enterococcus faecium, ATCC700221, Table 1, HT series; read-out: Minimum inhibitory concentration (MIC) Efm 21
Summary of the method: as §1

[11] = system: S. aureus ATCC 700699 (Sa 99); test: MIC, broth microdilution, Sa 99; type: cell-based; conditions: replicates from different days separated by comma; for MIC: Staphylococcus aureus, ATCC700699, Table 1, HT series, read-out: Minimum inhibitory concentration (MIC) Sa 99; for Minimum inhibitory concentration (MIC) Sa 99: Table 1, HT series
Summary of the method: as §1

[12] = system: S. aureus ATCC 33591 (Sa 91); test: MIC, broth microdilution, Sa 91; type: cell-based; conditions: Staphylococcus aureus, ATCC33591; Table 1, HT series; read-out: Minimum inhibitory concentration (MIC) Sa 91
Summary of the method: as §1

[13] = system: S. aureus ATCC BAA-2312 (Sa 12); test: MIC, broth microdilution, Sa 12; type: cell-based; conditions: Staphylococcus aureus, ATCCBAA2312; Table 1, HT series; read-out: Minimum inhibitory concentration (MIC) Sa 12
Summary of the method: as §1

[14] = system: S. aureus ATCC 33592 (Sa 92); test: MIC, broth microdilution, Sa 92; type: cell-based; conditions: Staphylococcus aureus, ATCC33592; Table 1, HT series; read-out: Minimum inhibitory concentration (MIC) Sa 92
Summary of the method: as §1

Structure (SMILES)	MIC [1]	MIC [2]	Minimum inhibitory concentration (MIC) Efs 12 [3]	MIC [4]	MIC [5]	MIC [6]	MIC [7]	Minimum inhibitory concentration (MIC) Sa 23 [7]	MIC [8]	MIC [9]	MIC [10]	MIC [11]	Minimum inhibitory concentration (MIC) Sa 99 [11]	MIC [12]	MIC [13]	MIC [14]
Oc1ccc(-c2nc(-c3ccc(Br)cc3)cs2)cc1O [Compound 5, 4-(4-(4-bromophenyl)thiazol-2-yl)benzene-1,2-diol]	8 µg/mL (≈ 23 µM)	8 µg/mL (≈ 23 µM)	16 μg/mL (2×) and 2 μg/mL	4 µg/mL (≈ 11.5 µM)	16 µg/mL (≈ 45.9 µM)	4 µg/mL (≈ 11.5 µM)	2 µg/mL (≈ 5.74 µM)	2, 2, 2 μg/mL	16 µg/mL (≈ 45.9 µM)	8 µg/mL (≈ 23 µM)	16 µg/mL (≈ 45.9 µM)	2 µg/mL (≈ 5.74 µM)	2, 2, 2 μg/mL	4 µg/mL (≈ 11.5 µM)	8 µg/mL (≈ 23 µM)	8 µg/mL (≈ 23 µM)
Oc1ccc(-c2nc(-c3ccc(C(F)(F)F)cc3)cs2)cc1O [Compound 9, 4-(4-(4-(trifluoromethyl)phenyl)thiazol-2-yl)benzene-1,2-diol]	8 µg/mL (≈ 23.7 µM)	4 µg/mL (≈ 11.9 µM)	16 µg/mL and 2 µg/mL and 8 µg/mL	4 µg/mL (≈ 11.9 µM)	8 µg/mL (≈ 23.7 µM)	8 µg/mL (≈ 23.7 µM)	2 µg/mL (≈ 5.93 µM)	2, 2, 2 μg/mL	16 µg/mL (≈ 47.4 µM)	4 µg/mL (≈ 11.9 µM)	16 µg/mL (≈ 47.4 µM)	2 µg/mL (≈ 5.93 µM)	2, 2, 2 μg/mL	4 µg/mL (≈ 11.9 µM)	4 µg/mL (≈ 11.9 µM)	8 µg/mL (≈ 23.7 µM)
Oc1ccc(-c2nc(-c3cc(C(F)(F)F)cc(C(F)(F)F)c3)cs2)cc1O [Compound 10, 4-(4-(3,5-bis(trifluoromethyl)phenyl)thiazol-2-yl)benzene-1,2-diol]	8 µg/mL (≈ 19.7 µM)	2 µg/mL (≈ 4.93 µM)	16 µg/mL and 2 µg/mL and 8 µg/mL	2 µg/mL (≈ 4.93 µM)	8 µg/mL (≈ 19.7 µM)	2 µg/mL (≈ 4.93 µM)	2 µg/mL (≈ 4.93 µM)	1 µg/mL and 2 µg/mL	8 µg/mL (≈ 19.7 µM)	4 µg/mL (≈ 9.87 µM)	8 µg/mL (≈ 19.7 µM)	2 µg/mL (≈ 4.93 µM)	2, 2, 2 μg/mL	2 µg/mL (≈ 4.93 µM)	2 µg/mL (≈ 4.93 µM)	2 µg/mL (≈ 4.93 µM)
